Measured values as given in patent US9045445B2, “Glycine transporter-1 inhibitors, methods of making them, and uses thereof” (Albany Molecular Research, Inc., priority 2010, dated 2015).
pIC50: −log10 of the molar value. Counter-ions that a name gives are not always drawn.

These compounds were tested against T1, glycine transporter-1 (GlyT-1) (Homo sapiens, UniProt P48067) (assay: [14C]glycine uptake assay in JAR cells endogenously expressing GlyT-1 (scintillation proximity)). Details: GlyT-1 IC50 (nM).
T1 construct: JAR cells (ATCC#HTB-144), which endogenously express GlyT-1; host or cells: JAR human choriocarcinoma cells
T1 sequence (P48067 1-706): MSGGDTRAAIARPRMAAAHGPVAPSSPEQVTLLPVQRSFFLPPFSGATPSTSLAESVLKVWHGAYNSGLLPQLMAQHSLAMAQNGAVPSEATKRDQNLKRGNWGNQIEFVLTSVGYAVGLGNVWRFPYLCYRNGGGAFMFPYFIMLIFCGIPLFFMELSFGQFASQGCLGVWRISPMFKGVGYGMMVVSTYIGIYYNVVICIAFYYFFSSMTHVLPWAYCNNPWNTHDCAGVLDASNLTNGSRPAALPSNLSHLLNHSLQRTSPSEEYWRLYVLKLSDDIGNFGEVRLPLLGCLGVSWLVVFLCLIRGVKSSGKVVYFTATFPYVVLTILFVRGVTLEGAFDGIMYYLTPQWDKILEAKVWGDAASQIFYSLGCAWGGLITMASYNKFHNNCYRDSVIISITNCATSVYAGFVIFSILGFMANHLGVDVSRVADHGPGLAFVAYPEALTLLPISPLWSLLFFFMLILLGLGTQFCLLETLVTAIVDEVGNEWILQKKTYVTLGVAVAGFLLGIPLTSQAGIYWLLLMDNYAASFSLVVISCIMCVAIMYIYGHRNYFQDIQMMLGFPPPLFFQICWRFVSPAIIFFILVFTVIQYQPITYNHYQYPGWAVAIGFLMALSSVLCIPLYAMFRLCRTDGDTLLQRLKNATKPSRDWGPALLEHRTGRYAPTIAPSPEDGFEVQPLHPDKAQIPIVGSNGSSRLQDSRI
Assay type: cell-based
Method: The inhibitory activity of compounds of the invention against the glycine transporter-1 (GlyT-1) can be determined by the following scintillation proximity assay. The potency of each compound was assessed in inhibiting the uptake of radiolabeled glycine ([^14C]glycine) using the human choriocarcinoma cell line, JAR cells (ATCC#HTB-144), which endogenously express GlyT-1. In brief, 50,000 JARS cells were plated per well of tissue culture treated 96-well Cytostar-T plate (PerkinElmer) in RPMI media supplemented with 10% heat inactivated FBS and allowed to attach overnight at 37° C. and 5% CO2. Compounds were serially diluted 3-fold in DMSO generating a nine (9) data point response curve for each compound. Two replicates were performed per determination. The compounds were then diluted into Uptake Buffer (10 mM Hepes, 120 mM NaCl, 2 mM KCl, 1 mM CaCl2 and 1 mM MgCl2, 5 mM Alanine, pH 7.4) with a final DMSO concentration of 0.75% (v/v). Following the overnight incubation, the media was replaced with Uptake Buffer in the presence or absence of diluted compound and pre-incubated at room temperature for 10 minutes prior to the addition of [^14C]glycine at a final concentration of 5 μM. Following a 3 hour incubation period at 37° C. and 5% CO2, the plates were sealed and placed at room temperature in the dark for 15 minutes prior to quantification of incorporated radioactivity using a MicroBeta Trilux scintillation plate reader (PerkinElmer). Data were fit into a four-parameter model to determine the inhibitor concentration at half-maximal response (IC50). The assay window was established by control wells incubated with [^14C]glycine in the presence or absence of 10 mM non-labeled glycine. A dose response curve for a synthesized reference standard was generated on every plate as a positive control.

Row | Structure (SMILES) | IC50 [nM]
1 | CCCS(=O)(=O)N1CCN(C2(CNC(=O)c3c(F)cccc3F)CC3CC3C2)CC1 (centres unmarked) [compound 199, 2,6-Difluoro-N-((3-(4-(propylsulfonyl)piperazin-1-yl)bicyclo[3.1.0]hexan-3-yl)methyl)benzamide Hydrochloride] | 621

Same assay, conditions: JAR cells, [14C]glycine 5 μM, 3 hour incubation; read-out: GlyT-1 IC50

Row | pIC50 | Structure (SMILES)
2 | 7.60 | Cc1ccccc1C(=O)NCC1(N2CCN(S(=O)(=O)c3cn(C)cn3)CC2)CCC(F)(F)CC1 [compound 179, N-((4,4-difluoro-1-(4-(1-methyl-1H-imidazol-4-ylsulfonyl)piperazin-1-yl)cyclohexyl)methyl)-2-methylbenzamide Hydrochloride]
3 | 8.10 | Cn1cnc(S(=O)(=O)N2CCN(C3(CNC(=O)c4c(F)cccc4Cl)CCC(F)(F)CC3)CC2)c1 [compound 180, 2-Chloro-N-((4,4-difluoro-1-(4-(1-methyl-1H-imidazol-4-ylsulfonyl)piperazin-1-yl)cyclohexyl)methyl)-6-fluorobenzamide Hydrochloride]
4 | 8.70 | Cc1cccc(Cl)c1C(=O)NCC1(N2CCN(S(=O)(=O)c3cn(C)cn3)CC2)CCC(F)(F)CC1 [compound 181, 2-Chloro-N-((4,4-difluoro-1-(4-(1-methyl-1H-imidazol-4-ylsulfonyl)piperazin-1-yl)cyclohexyl)methyl)-6-methylbenzamide Hydrochloride]
5 | 8.22 | Cc1cccc(F)c1C(=O)NCC1(N2CCN(S(=O)(=O)c3cn(C)cn3)CC2)CCC(F)(F)CC1 [compound 182, N-((4,4-Difluoro-1-(4-(1-methyl-1H-imidazol-4-ylsulfonyl)piperazin-1-yl)cyclohexyl)methyl)-2-fluoro-6-methylbenzamide Hydrochloride]
6 | 8.30 | Cn1cnc(S(=O)(=O)N2CCN(C3(CNC(=O)c4ccccc4OC(F)F)CCC(F)(F)CC3)CC2)c1 [compound 183, N-((4,4-Difluoro-1-(4-(1-methyl-1H-imidazol-4-ylsulfonyl)piperazin-1-yl)cyclohexyl)methyl)-2-(difluoromethoxy) benzamide Hydrochloride]
7 | 7.89 | Cc1cc(F)ccc1C(=O)NCC1(N2CCN(S(=O)(=O)c3cn(C)cn3)CC2)CCC(F)(F)CC1 [compound 184, N-((4,4-Difluoro-1-(4-(1-methyl-1H-imidazol-4-ylsulfonyl)piperazin-1-yl)cyclohexyl)methyl)-4-fluoro-2-methylbenzamide Hydrochloride]
8 | 9.00 | Cn1cnc(S(=O)(=O)N2CCN(C3(CNC(=O)c4c(F)cccc4OC(F)(F)F)CCC(F)(F)CC3)CC2)c1 [compound 186, N-((4,4-Difluoro-1-(4-(1-methyl-1H-imidazol-4-ylsulfonyl)piperazin-1-yl)cyclohexyl)methyl)-2-fluoro-6-(trifluoromethoxy) benzamide Hydrochloride]
9 | 9.00 | Cn1cnc(S(=O)(=O)N2CCN(C3(CNC(=O)c4c(Cl)cccc4OC(F)(F)F)CCC(F)(F)CC3)CC2)c1 [compound 187, 2-Chloro-N-((4,4-difluoro-1-(4-(1-methyl-1H-imidazol-4-ylsulfonyl)piperazin-1-yl)cyclohexyl)methyl)-6-(trifluoromethoxy) benzamide Hydrochloride]
10 | 9.00 | Cn1cnc(S(=O)(=O)N2CCN(C3(CNC(=O)c4c(F)cccc4OC(F)F)CCC(F)(F)CC3)CC2)c1 [compound 188, N-((4,4-Difluoro-1-(4-(1-methyl-1H-imidazol-4-ylsulfonyl)piperazin-1-yl)cyclohexyl)methyl)-2-(difluoromethoxy)-6-fluorobenzamide Hydrochloride]
11 | 9.00 | Cn1cc(S(=O)(=O)N2CCN(C3(CNC(=O)c4c(Cl)cccc4Cl)CCC(F)(F)CC3)CC2)nn1 [compound 190, 2,6-Dichloro-N-((4,4-difluoro-1-(4-(1-methyl-1H-l,2,3-triazol-4-ylsulfonyl)piperazin-1-yl)cyclohexyl)methyl) benzamide Hydrochloride]
12 | 9.00 | Cn1cc(S(=O)(=O)N2CCN(C3(CNC(=O)c4c(Cl)cccc4OC(F)(F)F)CCC(F)(F)CC3)CC2)nn1 [compound 191, 2-Chloro-N-((4,4-difluoro-1-(4-(1-methyl-1H-1,2,3-triazol-4-ylsulfonyl)piperazin-1-yl)cyclohexyl)methyl)-6-(trifluoromethoxy) benzamide Hydrochloride]
13 | 5.42 | CCCS(=O)(=O)N1CCN(C2(C(C)NC(=O)c3c(F)cccc3F)CCC(F)(F)CC2)CC1 (centres unmarked) [compound 196, N-(1-(4,4-Difluoro-1-(4-(propylsulfonyl)piperazin-1-yl)cyclohexyl)ethyl)-2,6-difluorobenzamide Hydrochloride]
14 | 6.52 | CCCS(=O)(=O)N1CCN(C2(C(C)NC(=O)c3c(F)cccc3F)CCC(F)(F)CC2)CC1 (centres unmarked) [compound 197, N-(1-(4,4-Difluoro-1-(4-(propylsulfonyl)piperazin-1-yl)cyclohexyl)ethyl)-2,6-difluorobenzamide Hydrochloride]
15 | 6.79 | CCCS(=O)(=O)N1CCN(C2(CNC(=O)c3c(F)cccc3F)CCC3(CC3)CC2)CC1 [compound 198, 2,6-Difluoro-N-((6-(4-(propylsulfonyl)piperazin-1-yl)spiro[2.5]octan-6-yl)methyl)benzamide Hydrochloride]
16 | 7.02 | CCS(=O)(=O)N1CCN(C2(CNC(=O)c3ccc(C(F)(F)F)cc3C(F)(F)F)CCC(F)(F)CC2)CC1 [compound 204, N-((1-(4-(Ethylsulfonyl)piperazin-1-yl)-4,4-difluorocyclohexyl)methyl)-2,4-bis(trifluoromethyl) benzamide Hydrochloride]
17 | 6.73 | CCS(=O)(=O)N1CCN(C2(CNC(=O)c3ccc(C(C)(F)F)cc3Cl)CCC(F)(F)CC2)CC1 [compound 205, 2-Chloro-4-(1,1-difluoroethyl)-N-((1-(4-(ethylsulfonyl)piperazin-1-yl)-4,4-difluorocyclohexyl)methyl) benzamide Hydrochloride]
18 | 7.08 | CCS(=O)(=O)N1CCN(C2(CNC(=O)c3c(Cl)cc(C(F)(F)F)cc3C(F)(F)F)CCC(F)(F)CC2)CC1 [compound 206, 2-Chloro-N-((1-(4-(ethylsulfonyl)piperazin-1-yl)-4,4-difluorocyclohexyl)methyl)-4,6-bis(trifluoromethyl) benzamide Hydrochloride]
19 | 6.86 | CCS(=O)(=O)N1CCN(C2(CNC(=O)c3c(F)cc(Cl)cc3F)CCC(F)(F)CC2)CC1 [compound 208, 4-Chloro-N-((1-(4-(ethylsulfonyl)piperazin-1-yl)-4,4-difluoro-cyclohexyl)methyl)-2,6-difluorobenzamide Hydrochloride]
20 | 7.08 | CCS(=O)(=O)N1CCN(C2(CNC(=O)c3c(Cl)cc(Cl)cc3Cl)CCC(F)(F)CC2)CC1 [compound 209, 2,4,6-Trichloro-N-((1-(4-(ethylsulfonyl)piperazin-1-yl)-4,4-difluorocyclohexyl)methyl) benzamide Hydrochloride]
21 | 7.14 | CCS(=O)(=O)N1CCN(C2(CNC(=O)c3c(F)cc(Cl)cc3Cl)CCC(F)(F)CC2)CC1 [compound 210, 2,4-Dichloro-N-((1-(4-(ethylsulfonyl)piperazin-1-yl)-4,4-difluorocyclohexyl)methyl)-6-fluorobenzamide Hydrochloride]
22 | 5.56 | CCS(=O)(=O)N1CCN(C2(CNC(=O)c3c(F)ccc(C(F)(F)F)c3F)CCC(F)(F)CC2)CC1 [compound 211, N-((1-(4-(Ethylsulfonyl)piperazin-1-yl)-4,4-difluorocyclohexyl)methyl)-2,6-difluoro-3-(trifluoromethyl) benzamide Hydrochloride]
23 | 6.68 | CCS(=O)(=O)N1CCN(C2(CNC(=O)c3cc(F)c(Cl)cc3Cl)CCC(F)(F)CC2)CC1 [compound 212, 2,4-Dichloro-N-((1-(4-(ethylsulfonyl)piperazin-1-yl)-4,4-difluorocyclohexyl)methyl)-5-fluorobenzamide Hydrochloride]
